Laboratory results reported in patent US7618657B2, “Active ingredients preparation and single compound purification from traditional Chinese herbal medicine Fructus Trichosanthis and uses thereof” (priority 2003, dated 2009).

What was measured:
[1] = test system: K562 cells; test: TMB staining of hemoglobin positive K562 cells; format: cell-based, human; settings: six days culture, hydroxyurea (positive control) 25.0 μg/ml
Protocol: K562 cells (ATCC) were cultured in RPMI 1640 (Gibco) supplemented with 10% fetal calf serum (FCS, Gibco) and 1% PSN (Gibco). The cultures were maintained under a humidified atmosphere with 95% air/5% CO2 at 37° C.
The hemoglobin positive K562 cells can be identified by 3,3′,5,5′-tetramethylbenzidine (TMB, Sigma) staining. In brief, 10 μl/cell suspension was pipetted out and mixed with 10 μl TMB working solution. Five minutes later, cells were scored as positive (blue) or negative (pale yellow) at 200× microscope.
Before the assay, K562 cells were scored first by TMB staining to ensure there was no selfdifferentiation (TMB positive cell percentage less than 1.0%). 100 μl/well complete RPMI 1640 was added into a 96-well plate, and 180 μl was added in the first well. 20 μl Trichosanthes extraction components was added into the first well immediately. Then 100 μl of the mixture was transferred to the next well. By such one half dilution method, serial dilutions of Trichosanthes extraction components were got.
100 μl K562 cell suspension with the density of 4×10^4 cells/ml was add into each well of the 96-well plate. […] Then the hemoglobin positive cells were recorded by TMB staining.
Dose-response effect of the lead compound from Trichosanthes was studied on K562 cells which were cultured and assayed as described in example 3. […] Then the hemoglobin positive cells were recorded by TMB staining.

[2] = test system: K562 cells; test: FACS analysis of fetal hemoglobin expression in treated K562 cells; format: cell-based, human; settings: HU 25 mg/ml, 6 days, FIG. 7
Protocol: K562 cells were cultured with hydroxyurea (HU, 25 mg/ml) and the lead compound from Trichosanthes (12.5 ng/ml) for 6 days. Then the cells were conjugated with PE labeled mouse anti human fetal hemoglobin monoclonal antibodies (Becton Dickinson) followed by FACS analysis. In brief, 1×10^6 cells were collected in a 15 ml falcon tube and centrifuged in 150 rpm for 5 min. The cell pallet was washed with PBS. Then cells were fixed by gently mixing with 1 ml PBS with 4% formaldehyde (37-40%, Merck) for 1 hr at room temperature. The fixed cells were washed once with PBS and then were resuspended in 100 μl 0.01% Triton X-100 (Merck) in PBS/0.1% BSA (Sigma). 20 μl monoclonal antibody was added in, followed by mixing thoroughly and incubating for 30 min in darkness at room temperature, with frequent gentle shaking. Finally the cells were washed with 1× PBS with 0.1% sodium azide once and kept in 4° C. until analysis.

NC(=O)NO [Hydroxyurea, hydroxyurea]
TMB Positive Cell Percentage [1]: 66.7 ± 4.4% | expression of fetal hemoglobin (FACS, PE labeled anti human fetal hemoglobin antibody) [2]: induced
